Values of other authors in patent US20040071803A1, “Process for preparation of anti-diabetic compositions from banyan bark” (priority 2002, published 2004).

Assays:
[1] = tested on: alloxan induced diabetic rats; details: single dose of 250 mg/kg or long term 100 mg/Kg/day; mild but not severe diabetes (Cherian et. al. 1992)

| Compound | Antidiabetic effect in alloxan induced diabetic rats [1] | Effect on severely diabetic rabbits (alloxan diabetic rabbits; fasting blood glucose (FBG) of 250 mg/dl or above (Augusti 1975)) | Hypoglycemic activity relative to tolbutamide (alloxan diabetic rabbits; normal and mildly diabetic rabbits (Augusti 1975)) |
| --- | --- | --- | --- |
| CC1OC(Oc2cc3c(O)cc(O)cc3[o+]c2-c2ccc(O)cc2)C(O)C(O)C1O (stereo not drawn) [pelargonidin 3-0-α-rhamnoside] | antidiabetic effect | – | – |
| Leucocyanidin 3-0-β D-galactosyl cellobioside | antidiabetic effect | – | – |
| bengalinoside | – | did not have any effect | half as active as tolbutamide |
